Assay results published in patent US20090149512A1, “Use of Ghrelin Antagonists to the Treatment of Certain CNS Diseases” (Novo Nordisk A/S, priority 2004, published 2009).

Tested on: diabetic ob/ob mice
Assay: Assessment of level of wakefulness/activity (locomotor activity, light-beam interruption method)
Assay type: in vivo
Conditions: 20 mg/kg i.p. in saline once daily for 14 days, male, 8 months old
Experimental: The effect of an administered substance (for example a ghrelin antagonist) on the level of wakefulness or activity in animal subjects (for example, mice) may be assessed by means of an activity test in which the primary measurement parameter is locomotor activity.
Baseline activity is determined for all the animals 1-2 days prior to administration of saline (placebo) or ghrelin antagonist. The animals are subsequently monitored, either acutely or at the end of a more sub-chronic or chronic treatment lasting several days or weeks, for behavioural sensitization. On testing days, the animals are allowed to acclimatize to the behavioural monitors for 30 minutes prior to data accumulation if the monitors in question are different from their “home” cages. Activity is recorded for at least 1 hour on each of the testing days (baseline and post-treatment test). In a suitable arrangement, transparent chambers of Plexiglas™ are equipped with aluminium frames on which are mounted infrared light emitters and detectors. The detectors are interfaced to a personal computer (PC). Behavioural or psychomotor activity is defined as the total number of light-beam interruptions recorded during each testing session. […]

For `CNC(=O)c1noc(C(Cc2ccccc2)N(C)C(=O)[C@@H](Cc2ccc3ccccc3c2)NC(=O)/C=C/C(C)(C)N)n1` (single isomer, unassigned) [D2], the “behaviour of treated animals when observed” value was “awake and interested in their environment” and the “level of wakefulness/activity (locomotor activity) assessed using the light-beam interruption method” value (versus saline control) was “became surprisingly active and awake for the duration of the study”.
